Test results reported in paper PMC10674865, “Identification and Pharmacological Characterization of a Low-Liability Antinociceptive Bifunctional MOR/DOR Cyclic Peptide” (Molecules, 2023).
Marks after values point to notes of the source that are not given here. Positions of bridges follow the written chain, without caps; N, C: chain ends. Non-standard residues stand in square brackets, D forms with d. Residues, ends and D or L forms follow the SMILES beside them. 2Abz = Nc1ccccc1C(=O)O; Dap = NC[C@H](N)C(=O)O

Assays:
MOR [1] = target: T1, MOR (Homo sapiens, UniProt P35372); assay: SAFETYscan cAMP assay, agonist mode, cells overexpressing MOR; assay type: cell-based; conditions: cells overexpressing receptor, read-out: MOR agonism EC50
T1 sequence (P35372 whole entry): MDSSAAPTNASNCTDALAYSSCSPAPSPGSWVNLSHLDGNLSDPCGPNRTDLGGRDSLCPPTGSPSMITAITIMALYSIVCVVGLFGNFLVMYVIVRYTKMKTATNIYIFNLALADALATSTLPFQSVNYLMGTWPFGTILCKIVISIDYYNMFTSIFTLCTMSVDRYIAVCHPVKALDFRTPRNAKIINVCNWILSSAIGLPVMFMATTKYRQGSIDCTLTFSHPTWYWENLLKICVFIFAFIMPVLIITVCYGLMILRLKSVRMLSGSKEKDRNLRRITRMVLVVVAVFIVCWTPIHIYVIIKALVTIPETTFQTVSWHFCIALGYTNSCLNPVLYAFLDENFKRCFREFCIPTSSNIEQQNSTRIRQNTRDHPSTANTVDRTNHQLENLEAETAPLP
Procedure: (§1) The potential interaction of CycloAnt with a panel of 47 protein targets, including GPCRs, kinases, nuclear hormone receptors, ion channels, and enzymes, was assessed by assays included in the SAFETYscan service from Eurofins DiscoverX. CycloAnt was tested in both agonist and antagonist modes for each representative GPCRs (see Supplemental Material S9–S11).
(§2) CycloAnt interactions with a broad set of molecular targets were determined with the Safety47 Panel Dose Response, using the SAFETYscan provided by Eurofins DiscoverX. This panel utilizes 78 assays at 47 protein targets, including GPCRs, kinases, nuclear hormone receptors, ion channels, and enzymes. […] CycloAnt only interacted with MOR and DOR in the panel, showing agonist activity at both receptors using the cAMP assay. […] This discrepancy on the function at DOR may be accounted for receptor reserve, as a very weak partial agonist/antagonist can appear as a full agonist when receptor reserve is present. […] Regardless, consistent with the SAFETYscan results, CycloAnt was not found to produce any significant biological activity at any other targets in this study than DOR and MOR.

DOR = DOR (Homo sapiens, UniProt P41143); assay: SAFETYscan cAMP assay, agonist mode, cells overexpressing DOR; assay type: cell-based; conditions: cells overexpressing receptor, read-out: DOR agonism EC50
Chain of DOR (P41143 whole entry): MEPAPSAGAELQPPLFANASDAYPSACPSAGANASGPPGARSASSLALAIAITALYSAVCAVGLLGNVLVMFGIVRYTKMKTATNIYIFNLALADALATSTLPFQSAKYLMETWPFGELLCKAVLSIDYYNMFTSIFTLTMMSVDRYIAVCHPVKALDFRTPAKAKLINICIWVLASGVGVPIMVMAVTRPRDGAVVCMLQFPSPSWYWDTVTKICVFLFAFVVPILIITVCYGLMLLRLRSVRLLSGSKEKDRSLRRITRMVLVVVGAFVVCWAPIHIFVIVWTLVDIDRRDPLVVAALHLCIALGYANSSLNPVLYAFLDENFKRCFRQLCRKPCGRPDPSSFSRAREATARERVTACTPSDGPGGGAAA
Procedure: as §1, §2

[2] = test system: panel of 47 protein targets, including GPCRs, kinases, nuclear hormone receptors, ion channels, and enzymes; assay: Eurofins DiscoverX SAFETYscan Safety47 panel, agonist and antagonist modes; conditions: 78 assays at 47 targets, other than MOR and DOR
Procedure: as §1, §2

C57BL/6J mice [3] = assay: Respiration rate in CLAMS apparatus; assay type: in vivo, mouse; conditions: CycloAnt 3.0 or 10.6 mg/kg i.p.; morphine 10 or 30 mg/kg i.p.; 120 min period
Procedure: (§3) Male C57Bl/6J mice were tested for respiratory effects using automated, computer-controlled Comprehensive Lab Animal Monitoring System (CLAMS) apparatus. Mice (n = 8) were habituated in closed apparatus cages (23.5 × 11.5 × 13 cm^3) for 30 min before being administrated with the hit i.p. at the experimented high dose of 3.0 mg/kg, and an even higher dose at 15 times of the ED50 value, 10.6 mg/kg, i.p. Mice were then returned to chambers, and their respiration rate (breaths/min) was measured for […] in 30 s intervals using a pressure transducer built into the enclosed, sealed CLAMS cage. The resultant change in pressure during mouse breathing was recorded to reveal the respiration rate (breaths/min).
(§4) Infrared beams located in the floor measured locomotion as the number of beam breaks. Respiration and locomotive data were averaged over 20 min periods for 120 min post-injection of the test compound. Data are presented as % vehicle response ± SEM, ambulation or breaths per minute.

C57BL/6J mice [4] = assay: Ambulation (hyperlocomotion) in CLAMS apparatus; assay type: in vivo, mouse; conditions: for Effect on ambulation (hyperlocomotion): CycloAnt 3 or 10.6 mg/kg i.p., morphine 10 or 30 mg/kg i.p., 120 min
Procedure: as §3, §4

mice [5] = assay: Opioid-induced hyperalgesia, 48 °C warm water tail-withdrawal assay; assay type: in vivo, mouse; conditions: for Day 5 tail withdrawal latency, 48 °C warm water stimulus: after twice daily dosing for 4 days (morphine 10 mg/kg, CycloAnt 3 mg/kg i.p.), before day 5 dose, day 1 baselines 10 ± 1.14 s (morphine group), 9.1 ± 0.68 s (CycloAnt group), mean ± SEM, SEM; for Opioid-induced hyperalgesia after chronic administration: twice daily for 4 days, morphine 10 mg/kg, CycloAnt 3 mg/kg i.p., 48 °C
Procedure: The 48 °C warm water tail-withdrawal assay was performed as previously described, with the latency to withdraw the tail taken as the end point. The water temperature of 48 °C was selected for this work to ensure a moderate tail-withdrawal response, with a measurable decrease in withdrawal time possible, but also a significant temperature for hyperalgesic testing. […] After determining control latencies on day 1, mice received chronic morphine (10 mg/kg, i.p.) or CycloAnt (3 mg/kg, i.p.) treatment twice a day for 4 days, as described below. […] Mice were then tested prior to treatment on day 5 for evidence of induced hyperalgesia.

mice [6] = assay: Antinociceptive tolerance after chronic dosing, 55 °C WWTW; assay type: in vivo, mouse; conditions: twice daily for 4 days, morphine 10 mg/kg (tested 30 min), CycloAnt 3 mg/kg i.p. (tested 20 min)
Procedure: (§5) Mice were randomly assigned to one of three groups and given saline (i.p.; n = 10), morphine (10 mg/kg, i.p.; n = 10) or CycloAnt (3 mg/kg, i.p.; n = 9) twice daily for 4 days, and once more on the morning of the fifth day. Mice were then tested in the 55 °C WWTW assay to assess for the loss of therapeutic efficacy (antinociceptive tolerance; see above). Two hours after this test, naloxone (10 mg/kg, i.p.) was administrated to all mice to precipitate opioid withdrawal. Mouse activity was digitally recorded and evaluated later for an established record of withdrawal behaviors for 15 min [39]. Immediately upon injection of naloxone, all mice were scored for number of jumps, forepaw tremor, wet dog shakes, straightening, rearing, forepaw licking, teeth chattering, and the presence (as +/−) and number of soft stools.

mice [7] = assay: Naloxone-precipitated opioid withdrawal (physical dependence); assay type: in vivo, mouse; conditions: for Forepaw Tremor: CycloAnt 3 mg/kg (n = 9) or morphine 10 mg/kg (n = 10) i.p. twice daily 4 days + day 5, naloxone 10 mg/kg i.p. 120 min later, scored 15 min, average; for Forepaw Licking Frequency / Jumping Frequency / Number of soft stools / Presence of diarrhea / Rearing Frequency / Straightening / Teeth Chattering Frequency / Wet Dog Shakes: as E25
Procedure: as §5

C57BL/6J male mice = assay: 55 °C warm water tail-withdrawal (WWTW) assay, antinociception; assay type: in vivo, mouse
Procedure: The 55 °C warm water tail-withdrawal assay was performed, as previously described, [52] to screen the library. Mixed-based samples were dissolved at a concentration of 5 mg/mL in saline containing 10% DMSO. Each sample was given to mice (n = 8) intraperitoneally (i.p.) at a dose of 5 mg/kg. At 0.5, 1, 2, 3.5, 5, 8 h post-administration of the samples, the tail-withdrawal latencies were measured for each sample. The average response time to tail-withdrawal at the six time points were then combined. The combined response time to withdrawal tail was used to determine the antinociceptive effect of each sample. A cutoff of 15 s was used to avoid tissue damage; those mice failing to withdraw their tails within this time were assigned a maximal antinociceptive score of 100%.
To determine antinociceptive activity of individual compounds, the tail-withdrawal latency was determined repeatedly every 10 min, following administration of the compounds for 1 h or until latencies returned to baseline values. At each time point, antinociception was calculated according to the following formula: % antinociception = 100 × (test latency − control latency)/(15 − control latency). Tail-withdrawal data points are the means of 8–16 mice, unless otherwise indicated, with SEM shown by error bars.
Percent antinociception was used to determine within-group effects and to allow comparison to baseline latency in tail-withdrawal experiments. The statistical significance of differences between ED50 values was determined by evaluation of the ED50 value shift via nonlinear regression modeling with Prism 10.0 software. Significant differences in behavioral data were analyzed by ANOVA (one-way or two-way with repeated measures (RM), as appropriate). Significant results were further analyzed with Sidak’s, Tukey’s, or Dunnett’s multiple comparison post hoc tests, as appropriate. All data are presented as mean ± SEM, with significance set at p < 0.05.

MOR [8] = target: T1, MOR; conditions: receptor-binding assay; cited from earlier work
Excerpt: However, that cyclic peptide has a sequence of Tyr-[D-Lys-Dap(Ant)-Tyr-Gly], differing from the sequence Tyr-[D-Lys-Dap(Ant)-Thr-Gly] identified in this study. The di ...

Compound | Effect on breathing rate compared to vehicle (C57BL/6J mice [3]) | Effect on ambulation (hyperlocomotion) (C57BL/6J mice [4]) | Day 5 tail withdrawal latency, 48 °C warm water stimulus (mice [5]) [s] | Opioid-induced hyperalgesia after chronic administration (mice [5]) | Antinociceptive tolerance on day 5 (mice [6]) | Forepaw Tremor (mice [7]) | Forepaw Licking Frequency (mice [7]) | Jumping Frequency (mice [7]) | Number of soft stools (mice [7]) | Presence of diarrhea (mice [7]) | Rearing Frequency (mice [7]) | Straightening (mice [7]) | Teeth Chattering Frequency (mice [7]) | Wet Dog Shakes (mice [7]) | Time of peak antinociception after administration (C57BL/6J male mice; i.p., 55 °C WWTW) [min] | other results
C[C@@H](O)[C@@H]1NC(=O)[C@H](CNC(=O)c2ccccc2N)NC(=O)[C@H](NC(=O)[C@@H](N)Cc2ccc(O)cc2)CCCCNC(=O)CNC1=O [CycloAnt, Tyr-[D-Lys-Dap(Ant)-Thr-Gly]] (H-Y[dK][Dap](2Abz)TG; lactam 2-C) | did not significantly impair breathing | induced significant hyperlocomotor activity | 9.02 ± 0.83 | did not induce significant OIH | significant reductions in the tail-withdrawal latency | 23.7 † | 11.2 † | 1.89 † | 6.67 * | yes | 17.8 * | 1.22 | 0 † | 2.22 | – | EC50 (MOR [1]): 14 nM; EC50 (DOR): 3.36 nM; Agonist or antagonist activity at other panel targets [2]: did not produce agonist or antagonist activity at any other target tested in this panel; Ambulation compared with morphine (C57BL/6J mice [4]; after 20 min to end of testing period, p < 0.05 Tukey): significantly less than those induced by morphine
CN1CC[C@]23c4c5ccc(O)c4O[C@H]2[C@@H](O)C=C[C@H]3[C@H]1C5 [morphine, reference compound] | produced significant dose and time-dependent respiratory depression | significantly increased ambulation | 4.35 ± 0.47 | induced significant hyperalgesia | significant reductions in the tail-withdrawal latency | 66 * | 1.7 * | 41.6 * | 5.4 * | yes | 22.2 * | 1.1 | 9.5 * | 1.3 | 30 | ED50 (C57BL/6J male mice; Mus musculus, ip, 0.5 h, i.p., male C57BL/6J mice, 55 °C WWTW, at peak effect (morphine 30 min), read-out: Antinociceptive ED50 (and 95% confidence interval)): 4.12 mg/kg
Leu-[D-Lys-Dap(Ant)-Thr-Gly] (lariat or depsi) [CycloAnt-Leu, side-to-tail cyclic pentapeptide analog] | – | – | – | – | – | – | – | – | – | – | – | – | – | – | ≤ 20 | Duration of significant antinociception compared to vehicle (C57BL/6J male mice; CycloAnt 3 mg/kg i.p., CycloAnt-Leu 100 mg/kg i.p., p < 0.05 Dunnett): 50 min; Fold less potent than morphine (ED50) (C57BL/6J male mice; i.p., 55 °C WWTW): 9.3 fold; Antinociceptive ED50 (and 95% confidence interval) (C57BL/6J male mice; i.p., male C57BL/6J mice, 55 °C WWTW, at peak effect (morphine 30 min)): 38.3 (18.7–127.1) mg/kg
Tyr-[D-Lys-Dap(Ant)-Tyr-Gly] | – | – | – | – | – | – | – | – | – | – | – | – | – | – | – | Binding affinity for the MOR (MOR [8]): 14 nM
